Results as given in patent US9469653B2, “Pharmaceutical compositions for preventing or treating degenerative brain disease and method of screening the same” (KOREA INSTITUTE OF SCIENCE AND TECHNOLOGY, priority 2011, dated 2016).

Molecular target: T1, human MAO-B enzyme (Homo sapiens (Human), UniProt P27338)
Test: Screening of MAO-B activity inhibition (Amplex Red monoamine oxidase assay kit, benzylamine substrate)
Format: biochemical
Conditions: not given

T1 sequence (P27338 whole entry): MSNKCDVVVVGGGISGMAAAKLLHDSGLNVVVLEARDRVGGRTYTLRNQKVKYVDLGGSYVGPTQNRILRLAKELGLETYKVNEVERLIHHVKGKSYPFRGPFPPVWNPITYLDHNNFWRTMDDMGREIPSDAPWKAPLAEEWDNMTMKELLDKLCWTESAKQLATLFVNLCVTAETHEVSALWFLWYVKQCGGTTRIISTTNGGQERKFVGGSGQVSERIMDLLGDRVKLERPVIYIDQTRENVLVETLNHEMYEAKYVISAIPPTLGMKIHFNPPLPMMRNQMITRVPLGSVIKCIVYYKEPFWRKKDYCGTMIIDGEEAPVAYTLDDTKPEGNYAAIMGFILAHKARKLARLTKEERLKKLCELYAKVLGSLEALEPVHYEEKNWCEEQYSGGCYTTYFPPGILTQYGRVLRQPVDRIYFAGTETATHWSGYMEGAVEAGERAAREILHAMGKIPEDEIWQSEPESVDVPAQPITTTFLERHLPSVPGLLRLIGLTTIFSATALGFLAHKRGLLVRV

With “2-fluorophenyl-5-(pyrrolidine-1-yl)oxazolo[5,4-b]pyridine [Example 5-34]” the IC50 was 8.7 µM.

Same assay, conditions: activity assay at 0.001, 0.01, 0.1, 1 and 10 uM

First: c1ccc(-c2nc3ccc(N4CCCC4)nc3o2)cc1 [Example 5-30, 2-phenyl-5-(pyrrolidine-1-yl)oxazolo[5,4-b]pyridine]
Second: c1ccc(-c2nc3ccc(N4CCCCC4)nc3o2)cc1 [Example 5-37, 2-phenyl-5-(piperidine-1-yl)oxazolo[5,4-b]pyridine]
The IC50 of the first is 4.9-fold lower: 0.41 µM for the first, 2 µM for the second.

`c1ccc(-c2nc3ccc(N4CCCC4)nc3s2)cc1` [Example 5-31, 2-phenyl-5-(pyrrolidine-1-yl)thiazolo[5,4-b]pyridine] and `c1ccc(-c2nc3ccc(N4CCCCC4)nc3s2)cc1` [Example 5-38, 2-phenyl-5-(piperidine-1-yl)thiazolo[5,4-b]pyridine] are within 1.5-fold of each other in IC50: 7.3 µM for the first, 8.3 µM for the second.

`Clc1ccccc1-c1nc2ccc(N3CCCC3)nc2o1` [Example 5-32, 2-chlorophenyl-5-(pyrrolidine-1-yl)oxazolo[5,4-b]pyridine] was tested, and the IC50 was 112 µM.

Molecular target: T1, human MAO-B enzyme
Test: as above
Format: biochemical
Conditions: 10 uM of the synthesized compound, pargyline-corrected
Method: A stock solution was prepared using a human MAO-B enzyme (purchased from Aldrich) and a Amplex® Red monoamine oxidase assay kit according to a preparation manual. The kit includes a 5× reaction buffer, an Amplex® red reagent (1 mg), HRP, DMSO, H2O2, p-tyramine (substrate of MAO-A, B), benzylamine (substrate of MAO-B), clorgiline (inhibitor of MAO-A), and pargyline (inhibitor of MAO-B). Among these reagents in the kit, benzylamine was used as a substrate for MAO-B, and pargyline was used as an MAO-B inhibitor. A solution as overall substrates was prepared as follows. 200 ul of a solution of 1 mg of Amplex® red sufficiently dissolved in 200 ul of DMSO, 100 ul of a mixed solution of HRP and 1 ml of a 1× buffer, 200 ul of a solution of benzylamine dissolved in 1.2 ml of dH2O were added to 9.5 ml of a 1× buffer to reach a total volume of 10 mL, which is sufficient for 100 wells. 0.5 ul of a mixture of MAO-B inhibitor pargyline and 1 ml of dH2O was put into each well. First, the activity of MAO-B was determined using 10 uM of the synthesized compound.
96 wells were injected with positive and negative types, and the wile type. The positive type included only substrate and hydrogen peroxide, and the negative type included only substrate. For the wild type, corresponding wells were injected with the enzyme, substrate, and MAO-B inhibitor, but with no synthesized compound. Afterward, 2 ul of the synthesized compound (1 mM) was added into each well, and the human MAO-B enzyme was put only into the 1st row of wells. 0.5 ug of the human MAO-B was put into each well along with 100 ul of a 1× buffer. The human MAO-B enzyme was put into the 2nd row of the wells along with 0.5 ul of a pargyline, the MAO-B inhibitor. To reduce an experimental error for accuracy, the test was repeated three times for each compound. After 30 minutes, 100 ul of the substrate solution was added into each well in a darkroom. The test was performed in the darkroom due to light sensitivity of the Amplex® reagent. Finally, a total volume of the reaction solution per well reached 200 ul. After about 2 to 3 hours, chromophoric degrees of the samples were measured. A variation in data values for the 1st and 2nd rows of the wells indicates the pure reaction activity of the MAO-B enzyme with the substrate. Using the samples with the synthesized compound the remaining activity of MAO-B after inhibited by the synthesized compound may be determined. This is because the activities of the other enzymes excluding the MAO-B enzyme may be excluded through this method. Compounds with high inhibitory activity at a concentration of 10 uM were screened from among the synthesized compounds at a compound concentration of 10 uM.

Compared with “2-fluorophenyl-5-(pyrrolidine-1-yl)oxazolo[5,4-b]pyridine [Example 5-34]”, `c1ccc(-c2nc3ccc(N4CCCC4)nc3o2)cc1` [Example 5-30, 2-phenyl-5-(pyrrolidine-1-yl)oxazolo[5,4-b]pyridine] is lower in “Remaining activity of MAO-B (%)” value: 8.4% for the first, 2.31% for the second.

First: c1ccc(-c2nc3ccc(N4CCCC4)nc3s2)cc1 [Example 5-31, 2-phenyl-5-(pyrrolidine-1-yl)thiazolo[5,4-b]pyridine]
Second: Clc1ccccc1-c1nc2ccc(N3CCCC3)nc2o1 [Example 5-32, 2-chlorophenyl-5-(pyrrolidine-1-yl)oxazolo[5,4-b]pyridine]
The “Remaining activity of MAO-B (%)” value of the first is lower: 1.7% for the first, 7.7% for the second.

Going from `Clc1cccc(-c2nc3ccc(N4CCCC4)nc3o2)c1` [Example 5-33, 2-chlorophenyl-5-(pyrrolidine-1-yl)oxazolo[5,4-b]pyridine] to `Clc1ccc(-c2nc3ccc(N4CCCC4)nc3o2)cc1` [Example 5-35, 2-chlorophenyl-5-(pyrrolidine-1-yl)oxazolo[5,4-b]pyridine], the “Remaining activity of MAO-B (%)” value rises from 14.2% to 42.4%.

Going from `Brc1ccc(-c2nc3ccc(N4CCCC4)nc3o2)cc1` [Example 5-36] to `c1ccc(-c2nc3ccc(N4CCCCC4)nc3o2)cc1` [Example 5-37, 2-phenyl-5-(piperidine-1-yl)oxazolo[5,4-b]pyridine], the “Remaining activity of MAO-B (%)” value falls from 33.5% to 3.09%.

Going from `c1ccc(-c2nc3ccc(N4CCCCC4)nc3s2)cc1` [Example 5-38, 2-phenyl-5-(piperidine-1-yl)thiazolo[5,4-b]pyridine] to `Clc1cccc(-c2nc3ccc(N4CCCCC4)nc3o2)c1` [Example 5-41, 2-chlorophenyl-5-(piperidine-1-yl)oxazolo[5,4-b]pyridine], the “Remaining activity of MAO-B (%)” value rises from 1.8% to 17%.

First: Cc1cccc(-c2nc3ccc(N4CCCCC4)nc3o2)c1 [Example 5-42, 5-(piperidine-1-yl)-2-m-tolyloxazolo[5,4-b]pyridine]
Second: O=[N+]([O-])c1cccc(-c2nc3ccc(N4CCCCC4)nc3o2)c1 [Example 5-43]
The “Remaining activity of MAO-B (%)” value of the first is higher: −7.8% for the first, −21.5% for the second.

Compared with `N#Cc1cccc(-c2nc3ccc(N4CCCCC4)nc3o2)c1` [Example 5-44, 3-(5-(piperidine-1-yl)oxazolo[5,4-b]pyridine-2-yl)benzonitrile], `Clc1ccc(-c2nc3ccc(N4CCCCC4)nc3o2)cc1` [Example 5-46] is higher in “Remaining activity of MAO-B (%)” value: 10.1% for the first, 56.0% for the second.

Compared with `Cc1ccc(-c2nc3ccc(N4CCCCC4)nc3o2)cc1` [Example 5-48, 5-(piperidine-1-yl)-2-p-tolyloxazolo[5,4-b]pyridine], `N#Cc1ccc(-c2nc3ccc(N4CCCCC4)nc3o2)cc1` [Example 5-50, 4-(5-(piperidine-1-yl)oxazolo[5,4-b]pyridine-2-yl)benzonitrile] is higher in “Remaining activity of MAO-B (%)” value: 46.2% for the first, 71.2% for the second.

First: Clc1cccc(-c2nc3ccc(NC4CCCC4)nc3o2)c1 [Example 5-51, 2-(3-chlorophenyl)-N-cyclopentyloxazolo[5,4-b]pyridine-5-amine]
Second: c1ccc(-c2nc3ccc(NC4CCCCC4)nc3s2)cc1 [Example 5-52, N-cyclohexyl-2-phenylthiazolo[5,4-b]pyridine-5-amine]
The “Remaining activity of MAO-B (%)” value of the first is lower: 37.2% for the first, 43% for the second.

First: Clc1cccc(-c2nc3ccc(NC4CCCCC4)nc3o2)c1 [Example 5-53, 2-(3-chlorophenyl)-N-cyclohexyloxazolo[5,4-b]pyridine-5-amine]
Second: c1ccc(-c2nc3ccc(N4CCCCCC4)nc3o2)cc1 [Example 5-54, 5-(azepane-1-yl)-2-phenyloxazolo[5,4-b]pyridine]
The “Remaining activity of MAO-B (%)” value of the first is lower: 39.3% for the first, 57.5% for the second.

Compared with `c1ccc(-c2nc3ccc(N4CCCCCC4)nc3s2)cc1` [Example 5-55, 5-(azepane-1-yl)-2-phenylthiazolo[5,4-b]pyridine], `Fc1ccc(-c2nc3ccc(N4CCCCCC4)nc3o2)cc1` [Example 5-56, 5-(azepane-1-yl)-2-(4-fluorophenyl)oxazolo[5,4-b]pyridine] is higher in “Remaining activity of MAO-B (%)” value: −1.8% for the first, 61.4% for the second.

First: c1ccc(CNc2ccc3nc(-c4ccccc4)oc3n2)cc1 [Example 5-57, N-benzyl-2-phenyloxazolo[5,4-b]pyridine-5-amine]
Second: Fc1cccc(-c2nc3ccc(NCc4ccccc4)nc3o2)c1 [Example 5-59, N-benzyl-2-(3-fluorophenyl)oxazolo[5,4-b]pyridine-5-amine]
The “Remaining activity of MAO-B (%)” value of the first is higher: 63.1% for the first, 51.9% for the second.

Going from `Clc1cccc(-c2nc3ccc(NCc4ccccc4)nc3o2)c1` [Example 5-60, N-benzyl-2-(3-chlorophenyl)oxazolo[5,4-b]pyridine-5-amine] to `Clc1ccc(-c2nc3ccc(NCc4ccccc4)nc3o2)cc1` [Example 5-61, N-benzyl-2-(4-chlorophenyl)oxazolo[5,4-b]pyridine-5-amine], the “Remaining activity of MAO-B (%)” value falls from 55.4% to 46.4%.

Compared with `c1ccc(-c2nc3ccc(NCCN4CCOCC4)nc3s2)cc1` [Example 5-62, N-(2-morpholinoethyl)-2-phenylthiazolo[5,4-b]pyridine-5-amine], `CN(Cc1ccccc1)c1ccc2nc(-c3ccccc3)oc2n1` [Example 5-63, N-benzyl-N-methyl-2-phenyloxazolo[5,4-b]pyridine-5-amine] is higher in “Remaining activity of MAO-B (%)” value: 42.7% for the first, 53.2% for the second.

Compared with `CN(Cc1ccccc1)c1ccc2nc(-c3ccccc3)sc2n1` [Example 5-64, N-benzyl-N-methyl-2-phenylthiazole[5,4-b]pyridine-5-amine], `CN(Cc1ccccc1)c1ccc2nc(-c3ccccc3Cl)oc2n1` [Example 5-65, N-benzyl-2-(2-chlorophenyl)-N-methyloxazolo[5,4-b]pyridine-5-amine] is higher in “Remaining activity of MAO-B (%)” value: 47.8% for the first, 84.1% for the second.

Compared with `CN(Cc1ccccc1)c1ccc2nc(-c3cccc(F)c3)oc2n1` [Example 5-66, N-benzyl-2-(3-fluorophenyl)-N-methyloxazolo[5,4-b]pyridine-5-amine], `Cc1ccc(-c2nc3ccc(N(C)Cc4ccccc4)nc3o2)cc1` [Example 5-69, N-benzyl-N-methyl-2-p-tolyloxazolo[5,4-b]pyridine-5-amine] is higher in “Remaining activity of MAO-B (%)” value: 43% for the first, 84.1% for the second.

First: COc1ccc(-c2nc3ccc(N(C)Cc4ccccc4)nc3o2)cc1 [Example 5-70, N-benzyl-2-(4-methoxyphenyl)-N-methyloxazolo[5,4-b]pyridine-5-amine]
Second: CN(Cc1ccccc1)c1ccc2nc(-c3ccc([N+](=O)[O-])cc3)oc2n1 [Example 5-71, N-benzyl-N-methyl-2-(4-nitrophenyl)oxazolo[5,4-b]pyridine-5-amine]
The “Remaining activity of MAO-B (%)” value of the first is lower: 52.4% for the first, 101.2% for the second.

First: CN(Cc1ccccc1)c1ccc2nc(-c3ccc(C#N)cc3)oc2n1 [Example 5-72]
Second: CNc1ccc2nc(-c3ccccc3)oc2n1 [Example 5-73, N-methyl-2-phenyloxazolo[5,4-b]pyridine-5-amine]
The “Remaining activity of MAO-B (%)” value of the first is higher: 108.8% for the first, 51% for the second.

Compared with `CNc1ccc2nc(-c3ccc(C)cc3)oc2n1` [Example 5-78, N-methyl-2-p-tolyloxazolo[5,4-b]pyridine-5-amine], `CNc1ccc2nc(-c3ccc(OC)cc3)oc2n1` [Example 5-79, 2-(4-methoxyphenyl)-N-methyloxazolo[5,4-b]pyridine-5-amine] is higher in “Remaining activity of MAO-B (%)” value: 45.8% for the first, 84.5% for the second.

In the case of `c1ccc(-c2nc3ccc(NC4CCCCC4)nc3o2)cc1` [Example 5-80, N-cyclohexyl-2-phenyloxazolo[5,6-b]pyridine-5-amine], the “Remaining activity of MAO-B (%)” value is reported as 11.1%.
